The text below walks through data of PubChem BioAssay AID1417 (Emory University Molecular Libraries Screening Center, 2008).

Induced myeloid leukemia cell differentiation protein Mcl-1 (Homo sapiens), sequence (Q07820 whole entry, looked up): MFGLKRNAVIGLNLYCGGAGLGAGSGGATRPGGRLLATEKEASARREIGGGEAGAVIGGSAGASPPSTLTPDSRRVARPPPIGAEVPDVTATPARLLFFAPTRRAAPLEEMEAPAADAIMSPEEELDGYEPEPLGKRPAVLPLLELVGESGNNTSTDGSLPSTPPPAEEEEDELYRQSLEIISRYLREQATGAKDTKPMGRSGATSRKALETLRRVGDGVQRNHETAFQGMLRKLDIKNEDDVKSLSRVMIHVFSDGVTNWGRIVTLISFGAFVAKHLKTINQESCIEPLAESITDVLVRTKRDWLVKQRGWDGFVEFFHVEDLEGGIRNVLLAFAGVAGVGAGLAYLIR

This assay concerns the target Induced myeloid leukemia cell differentiation protein Mcl-1 (Homo sapiens) (UniProt Q07820). Put plainly: Mcl-1 Noxa peptide disruption concentration-response – biochemical, TR-FRET, dose response (AID 1417). The settings on record: Mcl-1/Noxa peptide interaction, cell-free TR-FRET (terbium/rhodamine), 2 h; measured here: absolute IC50.
Take `CCN(CC)c1ccc(NC(=O)CCNC(=O)c2ccco2)cc1`: the IC50 is greater than 54 µM.

In turn, `O=C(COc1cccnc1[N+](=O)[O-])c1ccc(Cl)s1` registered an IC50 of 2.84 µM.

Regarding `COc1ccc2[nH]c3c(=O)n(Cc4ccc(C(=O)N5CCCC5)cc4)c(=S)[nH]c3c2c1`, the IC50 is greater than 54 µM.

`O=C(O)c1ccc(-n2cccc2/C=C2/NC(=O)N(c3cccc(Cl)c3)C2=O)cc1`: the IC50 is less than 0.4 µM.

`COc1ccc(Cl)c(N2CCN(CCCNC(=O)Nc3ccc(C)cc3)CC2)c1` registered an IC50 of 6.02 µM.

`CCn1nc(C)c(/C=N/NC(=O)Cc2ccc(Cl)cc2)c1C` returned an IC50 greater than 54 µM.

In turn, `O=C(O)c1ccc(N/N=C/c2ccc(-c3cc(Cl)ccc3Cl)o2)cc1` came in with an IC50 of 1.84 µM.

In turn, `Cc1ccc([N+](=O)[O-])cc1N=Nc1c(-c2ccc([N+](=O)[O-])cc2)[nH]n(C(N)=S)c1=O` returned an IC50 of less than 0.4 µM.

Consider `CC(C)CC1NC(=O)N(CC(=O)c2ccc3c(c2)OCCO3)C1=O` (centres undefined), for which the IC50 is greater than 54 µM.

`COc1ccc(/C=C/C(=O)NC(=S)Nc2cc([N+](=O)[O-])ccc2O)cc1OC` displayed an IC50 of 1.12 µM.

In turn, `Nc1ccc(C2=Nc3cccc4cccc(c34)N2)cc1` had an IC50 of less than 0.4 µM.

Take `Cc1cc(C(=O)N/N=C/c2cc(N=Nc3ccccc3)ccc2O)n[nH]1`: the IC50 came out at 10.9 µM.

The compound `CCN(c1ccc(NC(=O)COC(=O)CCc2nc3ccccc3n2-c2ccccc2)cc1)C(C)C` came in with an IC50 of less than 0.4 µM.

In the case of `O=C(NCc1ccccc1)c1ccc2nc(-c3ccco3)c(-c3ccco3)nc2c1`, the IC50 was found to be 2.3 µM.

The compound `Cc1cc2ncn(/N=C/c3ccc([N+](=O)[O-])s3)c2cc1C` yielded an IC50 of 5.32 µM.

With `COc1ccc2nc(S(=O)Cc3ncc(C)c(OC)c3C)[nH]c2c1` (centres undefined), the IC50 is less than 0.4 µM.

In the case of `Cc1ccc2nc(/C(C#N)=C/c3ccc(-c4cccc([N+](=O)[O-])c4)o3)[nH]c2c1`, the IC50 turned out to be 1.68 µM.

The compound `Nc1ccc2nc(-c3ccc(Cl)cc3)[nH]c2c1` had an IC50 of 30.5 µM.

Turning to `C/C(=N/NC(=O)c1cc2ccccc2cc1O)C1C(=O)c2ccccc2C1=O`, the IC50 is 0.919 µM.

With `O=C(Nc1nc(-c2ccncc2)cs1)c1ccco1`, the IC50 is 3.61 µM.

On to `C=CCOC(=O)c1cc(-c2ccc(/C=C3\C(=O)NC(=O)C(C#N)=C3C)o2)ccc1Cl`, for which the IC50 was less than 0.4 µM.

Regarding `COc1cc(/C=N/NC(=O)c2cc(-c3ccco3)nc3ccccc23)cc(OC)c1O`, the IC50 is less than 0.4 µM.

For the compound `O=c1cc2c(=O)oc3cc(O)c(O)oc3c2c(O)c1O`, the IC50 was less than 0.4 µM.

In the case of `Cc1ccc(CNC(=O)c2ccc(-n3cccc3)cc2)cc1`, the IC50 worked out at 2.26 µM.

In turn, `Cc1ccc(NC(=S)NNc2ccc([N+](=O)[O-])cc2S(=O)(=O)Nc2ccccc2C(=O)O)cc1C` registered an IC50 of 1.27 µM.

Take `COc1ccc2[nH]c3c4c(ccc3c2c1)C(=O)C=CC4=O`: the IC50 was less than 0.4 µM.

Compound `Nc1scc2c(C(=O)N/N=C/c3ccc(Cl)cc3)nn(-c3ccccc3)c(=O)c12` came in with an IC50 of 1.32 µM.

Regarding `CC1=C(C#N)C(=O)NC(=O)/C1=C\c1ccc(-c2cc(C)c(C)cc2[N+](=O)[O-])o1`, the IC50 was less than 0.4 µM.

Compound `O=c1c(O)cccc2cc(O)c(O)c(O)c12` gave an IC50 of less than 0.4 µM.

`CCCCNC(=O)c1ccc2nc(-c3ccco3)c(-c3ccco3)nc2c1` gave an IC50 of less than 0.4 µM.

In turn, `COc1ccc(N2CCN(C(=O)c3ccc(CSc4ccccc4)cc3)CC2)cc1` had an IC50 greater than 54 µM.

As for `CN(C(=O)COC(=O)c1cc(-c2ccco2)nc2ccccc12)C1CCS(=O)(=O)C1` (centres undefined), the IC50 is less than 0.4 µM.

Consider `COc1cccc(-n2c(SCc3cc(=O)oc4cc(O)c(O)cc34)nc3ccccc3c2=O)c1`, for which the IC50 was determined as 2.18 µM.

In turn, `COc1ccc(-n2nc3cc(C)c(N)c(Br)c3n2)cc1` gave an IC50 of 2.86 µM.

Turning to `COc1ccc(C(=O)C[n+]2ccc(-c3nnc4n3CCCCC4)cc2)cc1`, the IC50 worked out at 23.1 µM.

`Cc1ccc(CNC(=O)c2ccc3c(=O)[nH]c4c(C(=O)NCC5CCCO5)sc(=S)n4c3c2)cc1` (centres undefined) yielded an IC50 of 11.1 µM.

Take `CCN(CC)c1ccc(NC(=O)c2ccccc2OCC(=O)OC)cc1`: the IC50 is greater than 54 µM.

`O=C(Nc1nccs1)c1cc(-c2ccco2)nc2ccccc12` gave an IC50 of 1.4 µM.

`Cc1ccc(/C=C2\SC(=S)N(Cc3ccccc3)C2=O)o1` showed an IC50 greater than 54 µM.

`O=C(CSc1nnc(SCc2ccccc2)s1)N/N=C/C=C/c1ccco1` came in with an IC50 of 4.87 µM.

Compound `CN(C)S(=O)(=O)c1cccc(NC(=S)N/N=C/c2ccc(O)c(O)c2O)c1` came in with an IC50 of less than 0.4 µM.

`COc1ccc(CN2C(=O)/C(=C/c3ccc(-c4ccc(Cl)c(C(=O)O)c4)o3)SC2=S)cc1` gave an IC50 of 1.56 µM.

For the compound `O=C(O)CCCN1C(=O)/C(=C\c2ccc(-c3nc4ccccc4s3)o2)SC1=S`, the IC50 was 1.12 µM.

`O=C1CC(=O)c2c1cccc2[N+](=O)[O-]` gave an IC50 of 2.56 µM.

Take `CN(C)c1ccc(NC(=O)Nc2ccc3snnc3c2)cc1`: the IC50 is less than 0.4 µM.

In turn, `Cc1ccc(C(=O)NNc2c3ccccc3nc3ccccc23)cc1` had an IC50 of 9.97 µM.

The compound `N#Cc1c(NC(=O)c2cccc(S(=O)(=O)Nc3ccc(C(=O)O)cc3)c2)sc2c1CCCC2` displayed an IC50 of 9.51 µM.

`O=C1CC(c2ccc(O)c(O)c2)Oc2c1ccc(O)c2O` (centres undefined): the IC50 came out at 2.46 µM.

Compound `COc1ccc(/C=C2\C(=O)NC(=S)N2C(=O)c2ccc(C)cc2)cc1` had an IC50 greater than 54 µM.

Take `O=C1NC(=S)N(C2CC2)C(=O)/C1=C/c1ccc2c(c1)CCN2CCCCl`: the IC50 is 0.728 µM.

Turning to `O=c1[nH]c(=S)[nH]c(O)c1N=Nc1ccc(-c2ccccc2)cc1[N+](=O)[O-]`, the IC50 came to 2.99 µM.

In the case of `CCN(CC)S(=O)(=O)c1cc(NC(=O)Cn2ncc(Cl)c(Cl)c2=O)ccc1C`, the concentration for half-maximal inhibition (IC50) was found to be 3.26 µM.

As to `CN(C)c1ccc(/C=N/N(Cc2ccccc2)c2ccccc2)cc1`, the IC50 was greater than 54 µM.

Regarding `CC(/C=N/NC(=O)c1cc(-c2ccc3ccccc3c2)n[nH]1)=C\c1ccco1`, the IC50 is 4.91 µM.

For the compound `COc1ccc2nc(NC(=O)Nc3cccc4ccccc34)sc2c1`, the IC50 was greater than 54 µM.

`COc1cc(SSc2cc(OC)cc([N+](=O)[O-])c2N)c(N)c([N+](=O)[O-])c1` registered an IC50 of less than 0.4 µM.

For the compound `NC(=S)n1[nH]c(-c2ccc([N+](=O)[O-])cc2)c(N=Nc2cccc([N+](=O)[O-])c2)c1=O`, the IC50 came out at 1.65 µM.

On to `CC(C)n1c(Nn2cnnc2)nc2ccccc21`, for which the IC50 is greater than 54 µM.

`COC(=O)c1cc(-c2ccc(C)o2)nc2ccccc12` yielded an IC50 of 14.8 µM.

Turning to `C=C(C)C(=O)Nc1cccc(C2=NOC3(C2)C[C@@H](C(N)=O)N(C(=O)C(=C)C)C3)c1` (some centres undefined), the IC50 was greater than 54 µM.

`CC(=O)Nc1sc(N/N=C\c2ccc(O)cc2)nc1-c1cccs1` displayed an IC50 of 1.07 µM.

The compound `O=C1C(Cl)=C(N2CCCCC2)C(=O)C(Cl)=C1c1cnc(N2CCCCC2)s1` came in with an IC50 of less than 0.4 µM.

Turning to `O=C1NC(=S)N(c2ccccc2F)C(=O)/C1=C\c1cccs1`, the IC50 was found to be 3.77 µM.

Take `Cc1cc(C)c2nc(-c3ccccn3)cc(C(=O)Nc3ccc(S(=O)(=O)Nc4onc(C)c4C)cc3)c2c1`: the IC50 worked out at 2.82 µM.

On to `COc1ccc(C(=O)Nc2ccc(N3CCCC3)cc2)cc1`, for which the IC50 is 2.65 µM.

As to `O=C(Nc1cccc(Oc2ccc(C(=O)O)c(C(=O)O)c2)c1)c1ccc(-c2ccccc2)cc1`, the IC50 is 3.61 µM.

Compound `CCOc1ccc2nc(NC(=O)c3cccc(-c4cc5ccccc5oc4=O)c3)sc2c1` displayed an IC50 of 3.75 µM.

The compound `Cc1ccc(S(=O)(=O)C(CCC(=O)N2CCOCC2)S(=O)(=O)c2ccc(C)cc2)cc1` had a half-maximal inhibitory concentration (IC50) greater than 54 µM.

The compound `O=C(CCO)c1ccc(O)cc1` registered an IC50 of 3.19 µM.

`COCCN1Cc2cccc(C(=O)Nc3cccc(C)c3C)c2C1=O`: the IC50 was greater than 54 µM.

The compound `Cc1ccc(-c2cc(C(=O)O)c3cc(Br)ccc3n2)o1` yielded an IC50 of 4.68 µM.

For the compound `COc1ccccc1/C=c1\sc2nc(-c3ccco3)nn2c1=O`, the 50% inhibitory concentration (IC50) was found to be 8.18 µM.

The compound `CCN1C(=O)C(C)S/C1=N\S(=O)(=O)c1ccc(F)cc1` (centres undefined) displayed a 50% inhibitory concentration (IC50) greater than 54 µM.

For the compound `COc1cccc(C(=O)Nc2ccc3nc(N4CCN(c5ncccn5)CC4)cc(C)c3c2)c1OC`, the IC50 is 8.07 µM.

The compound `NC(=S)n1[nH]c(-c2ccc([N+](=O)[O-])cc2)c(N=Nc2ccc(Cl)cc2)c1=O` displayed an IC50 of less than 0.4 µM.

In turn, `CC(=O)Oc1ccc(NC(=O)CSc2ccccc2)cc1` had an IC50 greater than 54 µM.

Consider `Oc1c(/C=N/c2ccccn2)sc2ccccc12`, for which the IC50 was less than 0.4 µM.

The compound `Cc1sc(NC(=O)c2cc(-c3ccc(Cl)cc3)nc3ccccc23)c(C(N)=O)c1C` gave an IC50 of 18.2 µM.

`Cc1ccc(NS(=O)(=O)c2cc([N+](=O)[O-])ccc2NNC(=S)Nc2cccc(Cl)c2)c(C)c1` came in with an IC50 greater than 54 µM.

As to `CN(c1ccccc1)c1ccc(/C=C(\CCC(=O)O)c2nc3ccccc3s2)cc1[N+](=O)[O-]`, the IC50 was determined as 1.06 µM.

Compound `COc1cc(/C=C2\SC(=O)N(c3ccc(Cl)cc3)C2=O)cc([N+](=O)[O-])c1O` registered an IC50 of less than 0.4 µM.

`Cc1[nH]c2ccccc2c1/C=N/Nc1ccc([N+](=O)[O-])cc1` displayed an IC50 of 0.76 µM.

As for `O=C(CSc1ccsc1[N+](=O)[O-])Nc1cc(F)ccc1F`, the IC50 was greater than 54 µM.

`N=c1c(C(=O)NCc2ccc3c(c2)OCO3)cc2c(=O)n3ccccc3nc2n1Cc1cccnc1`: the IC50 is 3.26 µM.

As for `O=C(O)c1ccc(N/N=C/c2ccc(OC(=O)c3cccc(Cl)c3)cc2)cc1`, the IC50 was 7.31 µM.

With `COc1cc(C2C3=C(Nc4nc(N)[nH]c(=O)c42)c2ccccc2C3=O)ccc1O` (centres undefined), the IC50 is 2.28 µM.

For the compound `CCn1nc([N+](=O)[O-])c(C(C#N)c2nc3cc(C(F)(F)F)ccc3s2)c(Cl)c1=O` (centres undefined), the IC50 worked out at 3.15 µM.

Regarding `Nc1ccc(Cc2ccc(N)c(O)c2)cc1O`, the IC50 is less than 0.4 µM.

`COc1ccc(C(=O)Nc2nc3c(s2)Cc2cc(OC)ccc2-3)cc1`: the IC50 came to 4.11 µM.

The compound `Oc1[nH]c(=S)sc1/C=C1\C(c2ccccc2)=Nc2ccccc21` registered an IC50 of 8.66 µM.

Take `COc1ccc(OC)c(/C=N/c2oc(-c3ccco3)c(-c3ccco3)c2C#N)c1`: the IC50 came to 9.72 µM.

Turning to `C=CCn1c(N2CCCCCC2)nc2c1c(=O)n(C)c(=O)n2C`, the IC50 was greater than 54 µM.

`O=c1c(Cl)c(N/N=C/c2ccc(Cl)cc2)cnn1-c1ccccc1` gave an IC50 of 4.42 µM.

The compound `O=C(/C=C/c1ccc(Cl)c([N+](=O)[O-])c1)Nc1ccc(N2CCCC2)cc1` registered an IC50 of 8.3 µM.

Usually IC50 stands for the concentration needed to halve the response being measured. Lower therefore signals higher potency.
